Assay results reported in article PMC9963937, “Synergistic Combination of Irinotecan and Rapamycin Orally Delivered by Nanoemulsion for Enhancing Therapeutic Efficacy of Pancreatic Cancer” (Pharmaceutics, 2023).
Like-named read-outs stand apart in the source and are kept apart here.

Experiments:
[1] = tested on: MIA PaCa-2 pancreatic cancer cell line; assay: MTT cell viability assay; type: cell-based; conditions: Homo sapiens, read-out: IC50 against MIA PaCa-2 cells
Procedure: To evaluate the cytotoxicity and combination effects of rapamycin and silymarin as well as free irinotecan, we performed the 3-(4,5-dimethylthiazol-2-yl)-2,5-diphenyl-2H-tetrazolium bromide (MTT) assay by using the MIA PaCa-2 pancreatic cancer cell line. Briefly, the cells were seeded in a 96-well plate at a density of 3 × 10^4 cells/well and incubated at 37 °C with 5% CO2 for 24 h. After 24 h, the cells were treated with different concentrations of free irinotecan (0–300 µM), rapamycin (0–300 µM), SN38 (0–300 nM), and silymarin (0–1000 µM). To determine the combination effect, the cells were treated with different ratios of irinotecan/rapamycin and SN38/rapamycin (1/0.3, 1/0.5, 1/1, and 1/2) and irinotecan/silymarin and SN38/silymarin (1/1 and 1/2). All the cells were incubated with the drugs for 24–48 h. Then, the MTT reagent and dimethyl sulfoxide were added for the formation and the dissolution of purple formazan crystals. The absorbance of each well was measured at 550 nm on a Cytation 3 cell imaging multimode reader (BioTek, Winooski, VT, USA). The half-maximal inhibitory concentration (IC50) and combination index (CI) of the drugs were calculated using CompuSyn Sofware (Paramus, NJ, USA) through the Chou–Talalay method. In the Chou–Talalay method, the CI values of <0.9, >1.1, and 0.9–1.1 indicated synergistic, antagonistic, and additive effects, respectively. Each data point was the mean of at least six individual experiments.

[2] = In vitro release from LBSNENP, USP Apparatus 2 dissolution; type: physicochemical; conditions: endpoint (60 min)
Procedure: The contents of irinotecan and rapamycin in LBSNENPir and LBSNENPra were detected through HPLC. To determine the irinotecan content, we used the Waters 600E HPLC system with the SunFire C18 column (4.6 mm × 250 mm I.D., 5 μm; Waters). The mobile phase consisted of 10 mM phosphate buffer (pH 3.0)/acetonitrile/tetrahydrofuran (65/35/2 v/v), the flow rate was 0.8 mL/min, the column was maintained at 40 °C, the injection volume was 20 µL, and the fluorescence detector was set at the excitation and emission wavelengths of 370 and 470 nm, respectively. To determine the rapamycin content, we used the JASCO HPLC system with the Inersil ODS-2 C18 column (4.0 mm × 150 mm I.D., 5 μm). The mobile phase was a mixture of acetonitrile and water (20/80 v/v), the flow rate was 1.0 mL/min, the column was maintained at 55 °C, the injection volume was 100 µL, and the UV detector was set at the wavelength of 278 nm. Each data point came from the mean of at least three individual trials. The assay method was also well validated before. […]
The in vitro release of irinotecan and rapamycin from LBSNENP was examined using the dissolution method on United States Pharmacopeia (USP) Apparatus 2 (VK7000, Vankel, UK). […] The contents of irinotecan and rapamycin were determined through HPLC as described in the earlier text. […]

IC50 ([1]; MIA PaCa-2, 24 h) [µM]	IC50 ([1]; MIA PaCa-2, 48 h) [µM]	dissolution percentage of raw irinotecan powder at the endpoint ([2]; buffer pH 1.2, 37 °C, 50 rpm)	dissolution percentage of raw rapamycin powder at the endpoint ([2]; 0.4% sodium lauryl sulfate solution, 37 °C, 100 rpm) [%]	Compound
4.78 ± 9.42	12.2 ± 4.56	approximately 63%	–	CCc1c2c(nc3ccc(OC(=O)N4CCC(N5CCCCC5)CC4)cc13)-c1cc3c(c(=O)n1C2)COC(=O)[C@]3(O)CC [irinotecan, Irinotecan]
2.98 ± 0.97	3.88 ± 1.17	–	~32	CO[C@H]1C[C@@H]2CC[C@@H](C)[C@@](O)(O2)C(=O)C(=O)N2CCCC[C@H]2C(=O)O[C@H]([C@H](C)C[C@@H]2CC[C@@H](O)[C@H](OC)C2)CC(=O)[C@H](C)/C=C(\C)[C@@H](O)[C@@H](OC)C(=O)[C@H](C)C[C@H](C)/C=C/C=C/C=C/1C [rapamycin, Rapamycin]
